Measured values published in the supplement of paper PMC11061612.

Tests used:
Test in all cases: combination Emax (second highest fraction inhibited in the dose matrix, 72 h); higher = more inhibition; extreme values may be limits of the assay
[1] = system: IGROV-1 (Ovarian Carcinoma)
In short: (§1)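 After 24 hours at 37°C and 5% CO2 in 1536-well plates, cells in DMEM/F12 or RPMI plus 10% FBS received two-drug dose matrices for 72 hours. Viability came from CellTiter-Glo 2.0 luminescence and was scaled as inhibition, anchored at 0 by vehicle wells and at 1 by blank wells. Combination Emax is taken as the second-highest inhibition in the matrix, and Bliss excess as the observed combination effect less EA + EB − EA·EB, with EA and EB the single-agent effects.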

[2] = system: NCI-H2023 (Non-Small Cell Lung Carcinoma)
In short: as §1

[3] = system: NCI-H1048 (Small Cell Lung Carcinoma)
In short: as §1

A375 (Melanoma) = system: A375 (Melanoma)
In short: as §1

[4] = system: Daudi (Burkitt's Lymphoma)
In short: as §1

[5] = system: TOV-21G (Ovarian Carcinoma)
In short: as §1

[6] = system: BC-1 (B-Cell Non-Hodgkin's Lymphoma)
In short: as §1

[7] = system: MRK-nu-1 (Breast Carcinoma)
In short: as §1

[8] = system: L-363 (Plasma Cell Myeloma)
In short: as §1

[9] = system: NCI-H1435 (Non-Small Cell Lung Carcinoma)
In short: as §1

[10] = system: KNS-62 (Squamous Cell Lung Carcinoma)
In short: as §1

[11] = system: SBC-5 (Small Cell Lung Carcinoma)
In short: as §1

DK-MG (Glioblastoma) = system: DK-MG (Glioblastoma)
In short: as §1

NCI-H2452 (Mesothelioma) = system: NCI-H2452 (Mesothelioma)
In short: as §1

[12] = system: GRANTA-519 (B-Cell Non-Hodgkin's Lymphoma)
In short: as §1

GCIY (Gastric Carcinoma) = system: GCIY (Gastric Carcinoma)
In short: as §1

[13] = system: NCI-H1648 (Lung Adenocarcinoma)
In short: as §1

[14] = system: OCI-M1 (Acute Myeloid Leukemia)
In short: as §1

[15] = system: NCI-H2009 (Lung Adenocarcinoma)
In short: as §1

C32 (Melanoma) = system: C32 (Melanoma)
In short: as §1

SMILES	combination Emax [1]	combination Emax [2]	combination Emax [3]	combination Emax (A375 (Melanoma))	combination Emax [4]	combination Emax [5]	combination Emax [6]	combination Emax [7]	combination Emax [8]	combination Emax [9]	combination Emax [10]	combination Emax [11]	combination Emax (DK-MG (Glioblastoma))	combination Emax (NCI-H2452 (Mesothelioma))	combination Emax [12]	combination Emax (GCIY (Gastric Carcinoma))	combination Emax [13]	combination Emax [14]	combination Emax [15]	combination Emax (C32 (Melanoma))
CCN(CCO)CCCOc1ccc2c(Nc3cc(CC(=O)Nc4cccc(F)c4)[nH]n3)ncnc2c1 [AZD2811] + C=CCn1c(=O)c2cnc(Nc3ccc(N4CCN(C)CC4)cc3)nc2n1-c1cccc(C(C)(C)O)n1 [AZD1775] (first compound max 1 µM, partner max 1 µM)	0.755	0.574	0.859	0.482	0.786	0.591	0.989	0.373	0.931	0.143	0.169	0.732	0.285	0.574	0.798	0.41	0.439	0.922	0.749	0.359
COc1nnc2ccc(N3CCC(c4ccc(OCCN5CCN(C)C(=O)[C@H]5C)cc4)CC3)nn12 [AZD5153] + CN(CC[C@H](CSC1=CC=CC=C1)NC2=C(C=C(C=C2)S(=O)(=O)NC(=O)C3=CC=C(C=C3)N4CCC(CC4)[C@H](C5=CC=CC=C5C6=CC=C(C=C6)Cl)O)S(=O)(=O)C(F)(F)F)CCO [AZD4320] (first compound max 1 µM, 7x7, partner max 1 µM)	0.608	–	0.801	0.476	0.58	0.807	–	–	–	–	–	0.534	0.614	–	0.986	–	–	1	–	0.444
Cc1c2c(nn1C)CSCc1cc(n(C)n1)CSc1cc(c3ccccc3c1)OCCCc1c(C(=O)O)n(C)c3c-2c(Cl)ccc13 [AZD5991] + CC1(C)CCC(CN2CCN(c3ccc(C(=O)NS(=O)(=O)c4ccc(NCC5CCOCC5)c([N+](=O)[O-])c4)c(Oc4cnc5[nH]ccc5c4)c3)CC2)=C(c2ccc(Cl)cc2)C1 [Venetoclax] (first compound max 1 µM, 7x7, partner max 1 µM)	0.469	0.205	0.954	0.307	0.258	0.209	1	1	1	0.206	–	0.231	0.613	0.305	0.472	0.343	0.748	0.175	0.151	0.626
Cc1c2c(nn1C)CSCc1cc(n(C)n1)CSc1cc(c3ccccc3c1)OCCCc1c(C(=O)O)n(C)c3c-2c(Cl)ccc13 [AZD5991] + Cc1cc2ncnn2cc1Nc1ncc2c(n1)n(C1CCOCC1)c(=O)n2C [AZD7648] (first compound max 1 µM, 7x7, partner max 10 µM)	0.625	0.441	0.988	0.331	0.328	–	1	1	1	0.211	0.277	0.419	0.509	0.409	0.214	0.526	0.892	0.145	0.147	0.198
CS(=O)(=O)CCNCc1ccc(-c2ccc3ncnc(Nc4ccc(OCc5cccc(F)c5)c(Cl)c4)c3c2)o1 [Lapatinib] + NC1(c2ccc(-c3nc4ccn5c(=O)[nH]nc5c4cc3-c3ccccc3)cc2)CCC1 [MK-2206] (first compound max 10 µM, 7x7, partner max 10 µM)	–	0.637	–	0.89	–	–	0.957	0.361	0.912	0.665	0.721	0.853	–	0.554	–	0.934	0.99	0.844	0.431	0.635
CC(=O)c1c(C)c2cnc(Nc3ccc(N4CCNCC4)cn3)nc2n(C2CCCC2)c1=O [Palbociclib] + CN(CC[C@H](CSC1=CC=CC=C1)NC2=C(C=C(C=C2)S(=O)(=O)NC(=O)C3=CC=C(C=C3)N4CCC(CC4)[C@H](C5=CC=CC=C5C6=CC=C(C=C6)Cl)O)S(=O)(=O)C(F)(F)F)CCO [AZD4320] (first compound max 10 µM, 7x7, partner max 1 µM)	0.793	–	0.677	0.373	0.561	0.626	–	–	–	–	–	0.251	0.389	–	0.903	–	–	0.994	–	0.209
CCc1c2c(nc3ccc(O)cc13)-c1cc3c(c(=O)n1C2)COC(=O)[C@]3(O)CC [SN-38] + O=C(c1cc(Cc2n[nH]c(=O)c3ccccc23)ccc1F)N1CCN(C(=O)C2CC2)CC1 [Olaparib] (first compound max 0.3 µM, 7x7, partner max 10 µM)	–	0.857	0.987	0.949	0.979	–	1	0.868	0.421	0.326	0.905	–	0.259	0.316	–	0.779	0.915	–	0.442	0.664
